Read-outs that look alike come from different tables or passages of the source. A value given as a limit tells only on which side of the number the result lay.

For orientation: EC50 means the concentration that produces a half-maximal response.

In experiment [1] the test system is IRF pathway, THP1-Dual™ cells. Nature of the experiment: STING reporter assay in THP1-Dual cells, IRF pathway (Lucia luciferase, QUANTI-Luc). It is filed as cell-based, human. Particulars: THP1-Dual cells, 10% human plasma, 20 hours, Lucia luciferase, 100% activation = 100 μM cGAMP, read-out: IRF (EC50 μM). The gist of the method: (§1)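 THP-1-derived dual-reporter cells treated with serially diluted compounds (final top concentration 100 μM) for 20 h at 37° C. NF-κB read as SEAP via QUANTI-Blue at OD620; IRF read as Lucia luminescence via QUANTI-Luc after 5 min. 100% activation set by 100 μM cGAMP, baseline by DMSO.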

Experiment [2] concerns NF-κB pathway, THP1-Dual™ cells. Nature of the experiment: STING reporter assay in THP1-Dual cells, NF-κB pathway (SEAP, QUANTI-Blue). The settings on record: THP1-Dual cells, 10% human plasma, 20 hours, SEAP, 100% activation = 100 μM cGAMP, read-out: NFkB (EC50 μM). It is filed as cell-based, human. The gist of the method:
as §1

`COC(=O)c1cc(F)cc2cc(Cn3cnc4ccncc4c3=O)oc12` [EXAMPLE 39, Methyl 5-fluoro-2-((4-oxopyrido[4,3-d]pyrimidin-3(4H)-yl)methyl)benzofuran-7-carboxylate]: the EC50 in experiment [1] (Homo sapiens, THP1-Dual, 20 h) amounted to 4 µM; in experiment [2] (Homo sapiens, THP1-Dual, 20 h) it was 3.6 µM.

Consider `CSC(=O)c1cc(C)cc2c(Cl)c(CNC(=O)c3cnn4cccnc34)oc12` [EXAMPLE 397], for which the EC50 in experiment [1] (Homo sapiens, THP1-Dual, 20 h) amounted to 0.46 µM; in experiment [2] (Homo sapiens, THP1-Dual, 20 h), 0.47 µM.

On to `O=C(OC1CC(F)(F)C1(F)F)c1cc(F)cc2cc(CNC(=O)c3cnn4cccnc34)oc12` (single isomer, unassigned) [EXAMPLE 321, 2,2,3,3-Tetrafluorocyclobutyl 5-fluoro-2-((pyrazolo[1,5-a]pyrimidine-3-carboxamido)methyl)benzofuran-7-carboxylate], for which the EC50 in experiment [1] came out at 0.3 µM; in experiment [2] it was 0.38 µM.

Regarding `CONC(=O)c1cc(C)cc2c(Cl)c(CNC(=O)c3cnn4cccnc34)oc12` [EXAMPLE 408, N-((3-chloro-7-(methoxycarbamoyl)-5-methylbenzofuran-2-yl)methyl)pyrazolo[1,5-a]pyrimidine-3-carboxamide], the EC50 was 0.91 µM in experiment [1] (Homo sapiens, THP1-Dual, 20 h) and 1.2 µM in experiment [2] (Homo sapiens, THP1-Dual, 20 h).

Turning to `CCSC(=O)c1cc(F)cc2cc(CNC(=O)c3cnn4cccnc34)oc12` [EXAMPLE 387, S-Ethyl 5-fluoro-2-((pyrazolo[1,5-a]pyrimidine-3-carboxamido)methyl)benzofuran-7-carbothioate], the EC50 in experiment [1] (Homo sapiens, THP1-Dual, 20 h) was determined as 1.9 µM; in experiment [2] (Homo sapiens, THP1-Dual, 20 h), 2.1 µM.

As for `O=C(OC1COC1)c1cc(F)cc2cc(CNC(=O)c3cnn4cccnc34)oc12` [EXAMPLE 233, Oxetan-3-yl 5-fluoro-2-((pyrazolo[1,5-a]pyrimidine-3-carboxamido)methyl)benzofuran-7-carboxylate], the EC50 in experiment [1] (Homo sapiens, THP1-Dual, 20 h) stood at 1.7 µM; in experiment [2] (Homo sapiens, THP1-Dual, 20 h) it was 2 µM.

`COC(=O)c1cc(Cl)cc2c(C(F)(F)F)c(CNC(=O)c3cnn4cccnc34)oc12` [EXAMPLE 116, Methyl 5-chloro-2-((pyrazolo[1,5-a]pyrimidine-3-carboxamido)methyl)-3-(trifluoromethyl)benzofuran-7-carboxylate]: the EC50 in experiment [1] (Homo sapiens, THP1-Dual, 20 h) is 2.9 µM; in experiment [2] (Homo sapiens, THP1-Dual, 20 h), 3.1 µM.

Turning to `CSC(=O)c1cc(F)cc2cc(CN3CCc4ccncc4C3=O)oc12` [EXAMPLE 386, S-Methyl 5-fluoro-2-((1-oxo-3,4-dihydro-2,7-naphthyridin-2(1H)-yl)methyl)benzofuran-7-carbothioate], the EC50 in experiment [1] (Homo sapiens, THP1-Dual, 20 h) was 3.4 µM; in experiment [2] (Homo sapiens, THP1-Dual, 20 h), 3.7 µM.

As to `COC(=O)c1c(F)ccc2cc(CNC(=O)c3cnn4cccnc34)oc12` [EXAMPLE 107, Methyl 6-fluoro-2-((pyrazolo[1,5-a]pyrimidine-3-carboxamido)methyl)benzofuran-7-carboxylate], the EC50 in experiment [1] (Homo sapiens, THP1-Dual, 20 h) was 1.4 µM; in experiment [2] (Homo sapiens, THP1-Dual, 20 h), 2 µM.

With `CC(C)OC(=O)c1ccc(F)c2cc(CNC(=O)c3cnn4cccnc34)oc12` [EXAMPLE 224, Isopropyl 4-fluoro-2-((pyrazolo[1,5-a]pyrimidine-3-carboxamido)methyl)benzofuran-7-carboxylate], the EC50 in experiment [1] (Homo sapiens, THP1-Dual, 20 h) came to 5.9 µM; in experiment [2] (Homo sapiens, THP1-Dual, 20 h), 4 µM.

On to `CCOC(=O)c1cccc2cc(CN3Cc4ccncc4C3=O)oc12` [EXAMPLE 203, Ethyl 2-((3-oxo-1,3-dihydro-2H-pyrrolo[3,4-c]pyridin-2-yl)methyl)benzofuran-7-carboxylate], for which the EC50 in experiment [1] (Homo sapiens, THP1-Dual, 20 h) came to 44 µM; in experiment [2] (Homo sapiens, THP1-Dual, 20 h), 65 µM.

Consider `COC(=O)c1cc(Cl)cc2cc(CNC(=O)c3cnccn3)oc12` [Example 58, Methyl 5-chloro-2-((pyrazine-2-carboxamido)methyl) benzofuran-7-carboxylate], for which the EC50 in experiment [1] turned out to be 2.7 µM; in experiment [2] it was 2.9 µM.

With `Cc1cc(C(N)=O)c2oc(CNC(=O)c3cnn4cccnc34)cc2c1` [EXAMPLE 404, N-((7-Carbamoyl-5-methylbenzofuran-2-yl)methyl)pyrazolo[1,5-a]pyrimidine-3-carboxamide], the EC50 in experiment [1] (Homo sapiens, THP1-Dual, 20 h) is above 100 µM; in experiment [2] (Homo sapiens, THP1-Dual, 20 h), 83 µM.
